The values that follow are results of earlier work, collected in patent US20240350500A1, “PLK1 INHIBITOR IN COMBINATION WITH ANTI-ANGIOGENICS FOR TREATING METASTATIC CANCER” (CARDIFF ONCOLOGY, INC., priority 2022, published 2024).

For data set [1], the system named is HT29 human colon adenocarcinoma xenografts. The conditions noted are these: in combination with irinotecan, compared to each agent alone.
Data set [2] relates to cell lines, both from solid as well as hematologic tumors.
For data set [3] the following is noted: rodent and nonrodent species.
Another data set has as its target PLK1 (Homo sapiens, UniProt P53350). The conditions noted are these: including other PLK members.
Data set [4] has as its system disseminated models of AML. The conditions noted are these: in combination with cytarabine.
The test system of data set [5] is AML. The conditions noted are these: combination with LDAC.
The subject of data set [6] is AML. The conditions noted are these: intravenously in combination with LDAC, compared with LDAC alone; treatment naïve AML unsuitable for induction therapy.
For data set [7], the system named is metastatic colorectal cancer. The conditions noted are these: 2nd line.
Setting [8] is: bev naïve (without prior bevacizumab).

Where two headings read alike, the source gives them in different places.

Sequence of PLK1 (P53350 whole entry): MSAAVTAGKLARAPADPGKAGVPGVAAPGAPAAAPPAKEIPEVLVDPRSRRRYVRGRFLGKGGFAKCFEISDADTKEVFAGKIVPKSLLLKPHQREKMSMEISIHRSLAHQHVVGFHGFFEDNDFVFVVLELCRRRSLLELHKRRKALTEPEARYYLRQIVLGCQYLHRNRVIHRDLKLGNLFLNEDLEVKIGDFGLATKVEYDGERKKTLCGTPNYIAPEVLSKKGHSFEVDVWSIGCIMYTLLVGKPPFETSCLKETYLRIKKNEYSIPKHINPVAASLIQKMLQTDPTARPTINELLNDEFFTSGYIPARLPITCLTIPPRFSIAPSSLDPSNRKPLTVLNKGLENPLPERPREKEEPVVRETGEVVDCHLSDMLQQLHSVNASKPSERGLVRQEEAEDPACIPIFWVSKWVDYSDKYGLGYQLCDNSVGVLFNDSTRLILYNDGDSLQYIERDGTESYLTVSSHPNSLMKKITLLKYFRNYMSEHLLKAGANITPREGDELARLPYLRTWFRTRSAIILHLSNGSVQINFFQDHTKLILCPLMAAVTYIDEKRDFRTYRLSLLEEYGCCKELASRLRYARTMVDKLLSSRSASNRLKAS

With `CN1CCN(c2ccc(OC(F)(F)F)c(Nc3ncc4c(n3)-c3c(c(C(N)=O)nn3CCO)CC4)c2)CC1` [onvansertib, 1-(2-hydroxyethyl)-8-{[5-(4-methylpiperazin-1-yl)-2-(trifluoromethoxy)phenyl]amino}-4,5-dihydro-1H-pyrazolo[4,3-h]quinazoline-3-carboxamide], in [1], the tumor regression result is “enhanced tumor regression”. For the setting “patients with advanced/metastatic solid tumors”, the primary dose-limiting toxicities entry was “neutropenia and thrombocytopenia”. The “time to recovery from hematologic toxicities” value (reversible) is recorded as at most 3 weeks. In addition, the cell-cycle effect entry in data set [2] (cancer cell lines) is given as “mitotic cell-cycle arrest followed by apoptosis”. In addition, the “potency in proliferation assays” value in data set [2] (large number of cell lines) is on record as “low nanomolar activity”. In addition, the “inhibition of cell proliferation” value with AML cell lines was “inhibited cell proliferation at nanomolar concentrations”. For the same compound, in data set [3], the oral bioavailability result is “good oral bioavailability”. Further, the “specificity for PLK1 among a panel of 296 kinases” value at PLK1 is “high specificity”. In data set [4], the “effect on cytarabine antitumor activity” value is “significantly increased cytarabine antitumor activity”. For the same compound, the tumor growth entry in the data set on xenograft models of AML was “inhibited”.
For the compound `CC[C@@H]1C(=O)N(C)c2cnc(Nc3ccc(C(=O)N[C@H]4CC[C@H](N5CCN(CC6CC6)CC5)CC4)cc3OC)nc2N1C(C)C` [volasertib], in the data set on AML [5], the “benefit of the combination” value is “no benefit” and the “risk of severe infections” value was “increased risk of severe infections”. Besides, the OS entry in the data set on AML [6] is recorded as “significant increase in OS”.
In the case of “bevacizumab: anti-angiogenics (angiogenesis inhibitor), Avastin”, the results for the mOS in data set [7] (setting [8]) and in data set [7] (patients with prior bev) were 13.9 months and 12.5 months, respectively. Moreover, the mPFS was 6.9 months in data set [7] (setting [8]) and 6.7 months in [7] (patients with prior bev).
